Reference: paper PMC12406204 (Journal of Medicinal Chemistry, 2025)
Converted amounts (≈) assume the structure as drawn.

Legend:
[1] = system: SH-SY5Y cells; assay: Neurite length in differentiated SH-SY5Y cells transfected with MAPT P301L + APP V717I; format: cell-based, human; conditions: for neuroprotective effect in presence of CB2R antagonist SR144528: 100 and 10 nM, SR144528 1 μM
Excerpt: Finally, to further validate these effects, a neuron-like in vitro model using differentiated SH-SY5Y cells was employed (Figure ). […] To simulate neurodegenerative conditions, cells were transiently transfected with expression plasmids encoding the MAPT P301L and APP V717I mutations. The MAPT P301L mutation promotes pathological tau hyperphosphorylation and aggregation, leading to microtubule destabilization, impaired axonal transport, and neurite retraction. , Meanwhile, the APP V717I mutation increases the production of long, aggregation-prone amyloidogenic peptides, disrupting cellular homeostasis through oxidative stress and cytoskeletal disorganization. ,
SH-SY5Y human neuroblastoma-derived cells (ECACC, 94030304) were cultured and differentiated in black 384-well plates (Revvity, 6057300). Plates were treated with laminin (1:500 dilution in PBS; Merck, L2020) by adding 25 μL per well and incubated for 2 h at room temperature. Subsequently, plates were washed three times with PBS. Cells were seeded at a density of 6.6 × 10^3 cells per well (in 50 μL) in culture medium. The base culture medium consisted of RPMI-1640 (Gibco, 61870) supplemented with 2% (v/v) fetal bovine serum (FBS; Merck, F7524), 1% (v/v) penicillin-streptomycin (P/S; Merck, P0781), and 0.1% (v/v) gentamicin (Merck, G1397).
Differentiation was initiated 24 h after plating. The culture medium was replaced with a differentiation medium composed of RPMI-1640 supplemented with 2% (v/v) FBS, 1% (v/v) P/S, 0.1% (v/v) gentamicin, and 10 μM all-trans retinoic acid (RA; Merck, R2625). Medium changes were performed every 3 days, and the plates were kept covered with aluminum foil to protect retinoic acid from light exposure. Six days later, cells were transfected with expression plasmids encoding MAPT P301L and APP V717I mutations employing Lipofectamine LTX (Thermo Fisher, 15338100) at a 1:2 proportion in Opti-MEM (Gibco, 11058-021) following the instructions of the manufacturer. After 6 h, the transfection medium was replaced with a differentiation medium composed of RPMI-1640, B27 supplement (1:50; Gibco, 17504), 1% (v/v) P/S, 0.1% (v/v) gentamicin, and 100 nM GLP-1 (Merck, G9416). 24 h later, test compounds were added using an Echo 650T acoustic dispenser (Labcyte) from a 10 mM stock solution in DMSO (Merck, D8418).
48 h after compound dispensation, cells were fixed with 4% paraformaldehyde (50 μL per well, Santa Cruz BT, sc-281692) for 20 min at 4 °C. Wells were then washed twice with HBSS (50 μL per wash, Merck, H8264) and incubated with 50 μL of blocking buffer for 30 min at room temperature. The blocking buffer consisted of HBSS supplemented with 5% BSA (w/v) (Merck, 10775835001) and 0.1% (v/v) Triton X-100 (Merck, T8787). After blocking, cells were incubated with an antibeta-tubulin antibody conjugated to Alexa Fluor 488 (1:500; BD Biosciences, 558605) and Draq5 nuclear stain (2.5 μM; Abcam, ab108410) diluted in blocking buffer. After incubation in the dark at room temperature, wells were washed once with 50 μL of HBSS and subsequently filled with 50 μL of blocking buffer prior to imaging.Images were acquired using an Operetta CLS High Content Screening System (Revvity) equipped with a 20× water-immersion objective. Fluorescent signals were detected using specific excitation/emission filter settings for each fluorophore: Alexa Fluor 488 (λex = 460–490 nm; λem = 500–550 nm) and Draq5 (λex = 615–645 nm; λem = 655–760 nm). For each well, nine nonoverlapping fields were captured under identical acquisition settings. Neurite length and complexity were quantified using Harmony software (version 4.9.2137.273; Revvity), applying a predefined analysis algorithm optimized for β-tubulin immunostaining. For each experiment, data were normalized to the average neurite length measured in the double-transfected condition (MAPT P301L + APP V717I) treated with vehicle, which was assigned a reference value of 100%. […]

[2] = target: P-glycoprotein (P-gp) (Homo sapiens, UniProt P08183); assay: P-gp interaction, Calcein-AM experiment; format: cell-based; conditions: for P-gp interaction % at 100 μM: inhibition at 100 μM; for EC50: Calcein-AM
Method: To validate the early predictions from the CNS-MPO and BOILED-egg models (Figure ), we experimentally assessed the BBB permeability and P-gp interaction of the selected CB2R agonists. For these studies, two pairs of amide enantiomers (18p and 18o, 18e, and 18f) were selected, and the evaluations were conducted using established protocols previously published by our group. Key parameters measured included the permeability coefficients (P appBA and P appAB), the bidirectional permeability ratio (BA/AB), and the degree of interaction with P-gP, as detailed in Table .
This experiment was carried out as described by Contino et al. with minor modifications. Each cell line (30,000 cells per well) was seeded into black CulturePlate 96/wells plate with 100 μL medium and allowed to become confluent overnight. 100 μL of test compounds were solubilized in culture medium and added to monolayers, with final concentrations ranging from 0.1 to 100 μM. 96/Wells plate was incubated at 37 °C for 30 min. Calcein-AM was added in 100 μL of Phosphate Buffered Saline (PBS) to yield a final concentration of 2.5 μM and plate was incubated for 30 min. Each well was washed 3 times with ice cold PBS. Saline buffer was added to each well and the plate was read with Victor3 (PerkinElmer) at excitation and emission wavelengths of 485 and 535 nm, respectively. In these experimental conditions Calcein cell accumulation in the absence and in the presence of tested compounds was evaluated and fluorescence basal level was estimated with untreated cells. In treated wells the increase of fluorescence with respect to basal level was measured. EC50 values were determined by fitting the fluorescence increase percentage versus log[dose].

[3] = Kinetic solubility (nephelometry); format: physicochemical; conditions: 37 °C, aqueous buffer, kinetic from dmso stock; 1:99 DMSO/PSB buffer; PBS pH 7
Method: The solubility of selected compounds was evaluated by following a previously described method. A 10 mM stock solution of the compound was serially diluted in 100% DMSO and 2.5 μL of this solution was added to a 384-well UV-transparent plate (Greiner) containing 47.5 μL of PBS (pH = 7). The plate was incubated at 37 °C for 4 h and the light scattering was measured in a Nephelostar plus reader (BMG LABTECH). The data was fitted to a segmented linear regression for measuring the compound solubility.

Chain of P-glycoprotein (P-gp) (P08183 whole entry): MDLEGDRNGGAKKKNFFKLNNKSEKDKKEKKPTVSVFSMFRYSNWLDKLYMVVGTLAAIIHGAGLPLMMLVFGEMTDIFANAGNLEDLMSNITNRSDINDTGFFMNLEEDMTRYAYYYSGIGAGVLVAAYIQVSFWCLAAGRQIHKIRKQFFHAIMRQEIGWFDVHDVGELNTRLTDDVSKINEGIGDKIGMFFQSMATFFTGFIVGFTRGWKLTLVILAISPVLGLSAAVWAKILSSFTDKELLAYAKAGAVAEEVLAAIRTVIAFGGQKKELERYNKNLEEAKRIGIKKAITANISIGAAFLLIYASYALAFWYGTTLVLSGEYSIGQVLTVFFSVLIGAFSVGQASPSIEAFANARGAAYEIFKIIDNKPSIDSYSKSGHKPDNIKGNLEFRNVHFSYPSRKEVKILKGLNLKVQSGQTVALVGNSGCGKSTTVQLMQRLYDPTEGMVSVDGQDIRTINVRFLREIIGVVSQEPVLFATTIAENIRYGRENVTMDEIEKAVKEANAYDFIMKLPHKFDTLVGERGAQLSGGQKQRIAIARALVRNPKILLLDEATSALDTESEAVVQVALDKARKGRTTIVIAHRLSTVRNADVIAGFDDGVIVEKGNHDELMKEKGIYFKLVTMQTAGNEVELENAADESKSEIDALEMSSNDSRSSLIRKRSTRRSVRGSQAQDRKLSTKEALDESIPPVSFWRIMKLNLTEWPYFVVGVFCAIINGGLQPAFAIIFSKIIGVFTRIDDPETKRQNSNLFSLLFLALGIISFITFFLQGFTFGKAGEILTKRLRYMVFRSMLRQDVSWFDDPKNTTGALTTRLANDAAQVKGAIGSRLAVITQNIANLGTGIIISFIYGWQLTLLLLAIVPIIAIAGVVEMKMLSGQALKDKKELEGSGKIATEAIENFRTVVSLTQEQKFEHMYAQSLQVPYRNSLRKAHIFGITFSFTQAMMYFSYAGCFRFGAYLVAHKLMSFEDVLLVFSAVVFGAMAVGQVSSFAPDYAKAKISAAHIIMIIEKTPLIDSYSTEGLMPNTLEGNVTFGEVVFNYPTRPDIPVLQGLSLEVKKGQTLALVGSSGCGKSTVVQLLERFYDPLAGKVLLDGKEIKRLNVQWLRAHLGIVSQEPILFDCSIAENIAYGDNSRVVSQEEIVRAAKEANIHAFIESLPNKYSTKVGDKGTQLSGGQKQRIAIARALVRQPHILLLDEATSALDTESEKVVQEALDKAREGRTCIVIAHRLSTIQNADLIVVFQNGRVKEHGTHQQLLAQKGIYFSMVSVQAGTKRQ

Row | Compound | protective effect against neurite shortening ([1]; 1 nM) | protective effect against neurite shortening ([1]; 10 nM to 1 μM) | neuroprotective effect in presence of CB2R antagonist SR144528 [1] | P-gp interaction % at 100 μM [2] | inhibition at 30 min, 1 μM ([2]; probe Calcein-AM (2.5 μM), at 1 μM as printed in text) | solubility at 4 h [3] | EC50 [2]
1 | NC(=O)[C@@H]1CCCCN1C(=O)c1cn(CC2CCCCC2)c2ccccc12 [18e] | neither compound produced a statistically significant effect | significant concentration-dependent protective effect | reversed | 30% | 30% | 40.1 µM (≈ 14.7 µg/mL) | 
2 | NC(=O)[C@H]1CCCCN1C(=O)c1cn(CC2CCCCC2)c2ccccc12 [18f] |  |  |  |  |  |  | 61.8 µM
3 | NC(=O)[C@@H]1CCCCN1C(=O)c1nn(Cc2ccc(F)cc2)c2ccccc12 [18o] | neither compound produced a statistically significant effect | significant concentration-dependent protective effect | reversed | 49% |  | 43.7 µM (≈ 16.6 µg/mL) | 
4 | NC(=O)[C@H]1CCCCN1C(=O)c1nn(Cc2ccc(F)cc2)c2ccccc12 [18p] |  |  |  |  |  |  | 56.9 µM
